One test addresses T1, renal dehydropeptidase I (Sus scrofa, UniProt P22412).
T1 construct: isolated from hog kidneys; from tissue; host or cells: hog kidney
T1 sequence (P22412 17-409): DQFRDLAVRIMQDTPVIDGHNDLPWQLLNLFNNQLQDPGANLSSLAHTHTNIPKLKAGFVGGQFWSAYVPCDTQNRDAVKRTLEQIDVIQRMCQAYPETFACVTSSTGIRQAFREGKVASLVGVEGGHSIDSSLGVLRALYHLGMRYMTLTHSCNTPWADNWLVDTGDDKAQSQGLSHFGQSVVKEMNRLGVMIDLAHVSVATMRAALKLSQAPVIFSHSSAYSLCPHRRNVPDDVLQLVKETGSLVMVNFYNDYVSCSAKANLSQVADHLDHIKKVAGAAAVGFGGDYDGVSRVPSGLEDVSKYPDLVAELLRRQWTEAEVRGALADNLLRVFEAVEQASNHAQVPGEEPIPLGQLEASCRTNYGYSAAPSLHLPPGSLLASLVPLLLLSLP
The experiment in a line: in vitro screen: inhibition of hydrolysis of glycyldehydrophenylalanine (GDP) by solubilized renal dipeptidase from hog kidneys (renal dehydropeptidase I inhibition). It counts as biochemical. The following applies: Table I, structure II (olefins); GDP 0.05 mM, 50 mM MOPS pH 7.1, 37° C., 275 nm. As to the method: This measured the ability of compounds to inhibit hydrolysis of glycyldehydrophenylalanine (GDP) by a solubilized preparation of […] isolated from hog kidneys. The procedure is as follows: to a 1 ml system containing 50 mM "MOPS" (3-(N-morpholino)-propanesulfonic acid) buffer, pH 7.1 is added 5 mg of lyophilized enzyme, and the test compound at a final concentration of 0.1 mM. After a five minute incubation at 37° C., GDP is added to a final concentration of 0.05 mM. Incubation is continued for 10 minutes, at 37° C. and hydroylsis of GDP is measured by the change in optical density with time at 275 nm. Inhibition of the enzyme is gauged by comparison to a standard run containing no inhibitor and is expressed as the inhibitor binding constant K. This is the concentration of the inhibitor which achieves 50% inhibition of the enzyme.
In general, Ki refers to a measure of affinity in units of concentration, obtained from inhibition or displacement. Read a high Ki as weaker binding. `N[C@@H](CC1CCCCC1)P(=O)(O)C/C(=C\CC1CCCC1)C(=O)O` [(1(R)-Amino-2-cyclohexylethyl)2-carboxy-4-cyclopentyl-2(Z)-butenyl phosphinic acid] showed a Ki of 0.86 nM.

Regarding `CCCC/C=C(\CP(=O)(O)C(N)CC(C)C)C(=O)O` (centres unmarked) [(CH3)2 CHCH2; CH3 (CH2)3; RS; Z], the Ki was 1.6 nM.

Regarding `CC(C)/C=C(\CP(=O)(O)[C@@H](N)CC1CCCCC1)C(=O)O` [(cyclo-C6 H11)CH2; (CH3)2 CH; R; Z], the affinity corresponds to a Ki of 0.54 nM.

In the case of `CCCCC/C=C(\CP(=O)(O)C(N)CC1CCCCC1)C(=O)O` (centres unmarked) [(cyclo-C6 H11)CH2; CH3 (CH2)4; RS; Z, (1-Amino-2-cyclohexylethyl) 2-carboxy-2(Z)-octenyl phosphinic acid], the Ki amounted to 3.1 nM.

In turn, `N[C@@H](CC1CCCCC1)P(=O)(O)C/C(=C\C1CCCCC1)C(=O)O` [(cyclo-C6 H11)CH2; cyclo-C6 H11; R; Z, (1(R)-Amino-2-cyclohexylethyl)2-carboxyl-3(Z)-cyclohexyl-2-propenyl phosphinic acid] yielded a Ki of 0.52 nM.

As for `NC(CC1CCCCC1)P(=O)(O)C/C(=C\C1CCCCC1)C(=O)O` (centres unmarked) [(cyclo-C6 H11)CH2; cyclo-C6 H11; RS; Z, (1-Amino-2-cyclohexylethyl) 2-carboxy-3(Z)-cyclohexyl-2-propenyl phosphinic acid], the Ki was determined as 0.9 nM.

Take `CCCCC/C=C(\CP(=O)(O)C(N)CCCCC)C(=O)O` (centres unmarked) [CH3 (CH2)4; CH3 (CH2)4; RS; Z, (1-Aminohexyl) 2-carboxy-2(Z)-octenyl phosphinic acid]: the affinity, expressed as Ki, was 1.4 nM.

In the case of `CCCCCC(N)P(=O)(O)C/C(=C\C1CCCCC1)C(=O)O` (centres unmarked) [CH3 (CH2)4; cyclo-C6 H11; RS; Z, (1-Aminohexyl) 2-carboxy-3-cyclohexyl-2(Z)-propenyl phosphinic acid], the affinity, expressed as Ki, was 0.5 nM.

On to `CCCCC/C=C(\CP(=O)(O)C(N)Cc1ccccc1)C(=O)O` (centres unmarked) [PhCH2; CH3 (CH2)4; RS; Z], for which the Ki was determined as 68 nM.

In turn, “(1(R)-Amino-2-cyclohexylethyl)2-carboxyl-4-methyl-(E & Z)-2-butenyl phosphinic acids (15C & 15D) [(cyclo-C6 H11)CH2; (CH3)2 CH; RS; Z] [listing 1 of 2 here]” yielded a Ki of 2.1 nM.

Consider “(1(R)-Amino-2-cyclohexylethyl)2-carboxyl-4-methyl-(E & Z)-2-butenyl phosphinic acids (15C & 15D) [(cyclo-C6 H11)CH2; (CH3)2 CH; RS; Z] [listing 2 of 2 here]”, for which the affinity, expressed as Ki, was 21 nM.

Staying with this test, now noted: Table II, structure I (saturated); GDP 0.05 mM, 50 mM MOPS pH 7.1, 37° C., 275 nm.
Regarding `CCCCCC(N)P(=O)(O)CC(CCC1CCCC1)C(=O)O` (racemic) [CH3 (CH2)4; (cyclo-C5 H9)CH2 CH2; RS; RS, (1-Amino-1-hexyl) 2-carboxy-4-cyclopenyl-1-butyl phosphinic acid], the Ki was 7 nM.

In turn, `CCCCCCC(CP(=O)(O)C(N)CCCCC)C(=O)O` (racemic) [CH3 (CH2)4; CH3 (CH2)5; RS; RS, (1-Amino-1hexyl) 2-carboxy-l-octyl phosphinic acid] displayed a Ki of 8 nM.

Take `CCCCC(CP(=O)(O)C(N)CC)C(=O)O` (racemic) [CH3 CH2; CH3 (CH2)3; RS; RS, 1-Aminopropyl-[2-carboxy-l-hexyl]phosphinic acid]: the inhibition constant Ki was 2.3 nM.

`CCC(CP(=O)(O)C(N)CC)C(=O)O` (racemic) [CH3 CH2; CH3 CH2; RS; RS, 1-Aminopropyl-[2-carboxy-l-butyl]phosphinic acid] gave a Ki of 1.3 nM.

Take `CCC(N)P(=O)(O)CC(CCc1ccccc1)C(=O)O` (racemic) [CH3 CH2; Ph(CH2)2; RS; RS, 1-Aminopropyl-[2-carboxy-4-phenyl-l-butyl]phosphinic acid]: the affinity corresponds to a Ki of 6.8 nM.

`N[C@@H](CC1CCCCC1)P(=O)(O)CC(CCC1CCCC1)C(=O)O` (some centres unmarked) [(1-Amino-2-cyclohexylethyl) 2-carboxy-4-cyclopentyl-1-butyl phosphinic acid]: affinity was put at a Ki of 2.7 nM.

Regarding `N[C@@H](CC1CCCCC1)P(=O)(O)CC(CC1CCCCC1)C(=O)O` (some centres unmarked) [(1-Amino-2-cyclohexylethyl)-2-carboxy-3-cyclohexyl-1-propyl phosphinic acid], the affinity, expressed as Ki, was 0.5 nM.

`N[C@@H](CC1CCCCC1)P(=O)(O)CC(CCCc1ccncc1)C(=O)O` (some centres unmarked) [(1-Amino-2-cyclohexylethyl)-2-carboxy-5-(4-pyridyl)-pentyl phosphinic acid] showed a Ki of 4 nM.

`CCCCC(CP(=O)(O)C(N)CC(C)C)C(=O)O` (centres unmarked) [(CH3)2 CHCH2; CH3 (CH2)3; RS; RS, 1-Amino-3-methylbutyl-[2-carboxy-1-hexyl]phosphinic acid] came in with a Ki of 2.4 nM.

Consider `CCCCCCC(CP(=O)(O)C(N)CC1CCCCC1)C(=O)O` (centres unmarked) [(cyclo-C6 H11)CH2; CH3 (CH2)5; RS; RS, (1-Amino-2-cyclohexylethyl) 2-carboxy-1-octyl phosphinic acid], for which affinity was put at a Ki of 1.6 nM.

As to `CCCCCC(N)P(=O)(O)CC(CC1CCCCC1)C(=O)O` (centres unmarked) [CH3 (CH2)4; (cyclo-C6 H11)CH2; RS; RS, (1-Amino-1-hexyl) 2-carboxy-3-cyclohexyl-1-propyl phosphinic acid], the Ki amounted to 9.7 nM.

On to `CCCCC(CP(=O)(O)C(N)Cc1ccccc1)C(=O)O` (centres unmarked) [PhCH2; CH3 (CH2)3; RS; RS, 1-Amino-2-phenylethyl-[2-carboxy-1-hexyl]phosphinic acid], for which the Ki was 84 nM.

Source of the values: patent US4962097A, “Method of treating bacterial infection with phosphorus containing DHP enzyme inhibitors” (Merck & Co., Inc., priority 1989, dated 1990).
